Data reported in patent US20120252721A1 (priority 2011, published 2012).

Experiments:
[1] = test system: HCV genotype 4a NS5A within the 1b-replicon; assay: Luciferase replicon assay, NS5A-intergenotypic stable cell line genotype 4a; format: cell-based; conditions: Hepatitis C virus, read-out: EC50 4a
Text: The nucleotide sequences of the NS5A region of genotype 2a (GenBank Accession # AB047639), genotype 3a (GenBank Accession #D17763), and genotype 4a (GenBank Accession# DQ418788) were synthesized by an outside vendor. The NS5A region of each of these genotypes included the first 11 amino acids of the protease recognition sequence of genotype 1b, as well as the last 10 amino acids of genotype 1b. The NS5A gene cassettes were excised with site specific restriction endonucleases and ligated into a ZS11-luciferase genotype 1b backbone (backbone contains the genotype 1b NS3 protease, NS4a, NS4b, and NS5b coding regions) with similarly cut restriction enzyme sites. Thus, the newly constructed plasmid contains a genotype 2a-, 3a- or 4a-specific NS5A gene within the 1b-replicon.
These new intergenotypic plasmids were used to establish stable cell lines. RNA was generated from the NS5A intergenotypic plasmids and used in conjunction with a lipofectin reagent to transfect a cured Huh7 cell line. Transfected cells were selected for with G418. After selection has occurred the stable cell lines were propagated, tested for luciferase activity, and RT-PCR with genotype specific primers (either 1a, 2a, 3a, or 4a). Stable cell lines containing the intergenotypic replicon were then fully sequenced and analyzed for proper expression of NS3, NS5A and NS5B proteins.
Drug titration analysis was performed using the luciferase replicon assay described herein.
The HCV luciferase replicon assay measures the ability of a test compound to inhibit HCV replication in cell culture after 3 days of treatment in a human hepatoma cell line (Huh-7) bearing an HCV replicon containing a luciferase-neomycin phosphotransferase fusion gene. The inhibition of HCV replication was measured by quantification of luciferase protein expression. Briefly, Huh-7 cells containing either the HCV genotype 1a H77 strain or genotype 1b Con1 strain subgenomic luciferase replicon (H1a-luc or Zluc, respectively) were grown in DMEM containing glucose, L-glutamine and sodium pyruvate, 10% fetal bovine serum (FBS), 100 IU/mL penicillin, 100 μg/mL streptomycin, 2 mM GlutaMAX, non-essential amino acids and 0.25 (H1a-luc) or 0.5 (Zluc) mg/mL G418. GlutaMAX was obtained from Invitrogen, Corp.; all other media reagents were obtained from Mediatech, Inc. For dose-response testing, the cells were seeded in 96-well plates at 1×10^4 (H1a-luc) or 7.5×10^3 (Zluc) cells/well in a volume of 50 μL, and incubated at 37° C./5% CO2. Three hours after plating, 50 μL of ten 5-fold serial dilutions of compound were added, and cell cultures were incubated at 37° C./5% CO2 for 72 hours. In all cases, Huh-7 cells lacking the HCV replicon served as negative control. To assess luciferase expression, the media/compound was removed from the plates and ONE-glo Luciferase assay reagent (Promega) was added to each well. The assay plates were shaken for 3 minutes at room temperature and luciferase activity for each well was measured with a 1 sec read time on the Victor^3V multilabel counter using a 700 nm cut-off filter (Perkin Elmer). EC50 values were calculated from dose response curves from the resulting best-fit equations determined by Microsoft Excel and XLfit 4.1 software.

in vitro = format: cell-based, human; conditions: human; Table 1B, cellular viability
Summary of the method: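 Cytotoxicity counter-screen in which the H1a-luc or Zluc cells were compound-treated and viability was read with the CellTiter 96 AQueous One (MTS) reagent by absorbance at 490 nm. CC50 values came from curve fitting.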

[2] = test system: HCV genotype 1b replicon, NS5B M423T; assay: Luciferase replicon transient transfection assay, genotype 1b NS5B M423T; format: cell-based, hepatitis C virus
Experimental: The luciferase replicon transient transfection assay measures the ability of a test compound to inhibit the replication of a transiently-transfected HCV luciferase-bearing wild-type or mutant replicon in cured human hepatoma cells (Huh7.5). The inhibition of HCV replication was measured by quantification of luciferase protein expression. This assay has been validated using a panel of genotype 1a and 1b replicons bearing mutations known to be associated with resistance to BMS-790052. Briefly, subconfluent Huh7.5 cells were electroporated with 10 μg of wild-type or mutant luciferase-bearing HCV replicon RNA. The cells were then seeded in 96-well opaque white plates at 3×10^4 cells/well in 150 μL/well and incubated for 4 hrs at 37° C./5% CO2. […] The plates were agitated on a rotating platform at room temperature for 3 min and read in a Victor^3V microplate reader (Perkin-Elmer) using a 700 nm cut-off filter with a 1 sec read time. EC50 values were calculated from dose response curves from the resulting best-fit equations determined by Microsoft Excel and XLfit 4.1 software.
To determine the replication capacity of each mutant relative to the wild-type parental replicon, transfected cells were plated on two plates and were not treated with compound. Luciferase activity was measured at time points of 4 hrs and 4 days after plating for each replicon. […]

Work on `COC(=O)N[C@H](C(=O)N1CCC[C@H]1c1ncc(-c2ccc(-c3csc4c(-c5cnc([C@@H]6CCCN6C(=O)[C@@H](NC(=O)OC)C(C)C)[nH]5)csc34)cc2)[nH]1)C(C)C` [Compound A15, [(S)-1-((S)-2-{4-[4-(6-{2-[(S)-1-((S)-2-methoxycarbonylamino-3-methyl-butyryl)-pyrrolidin-2-yl]-3H-imidazol-4-yl}-thieno[3,2-b]thiophen-3-yl)-phenyl]-1H-imidazol-2-yl}-pyrrolidine-1-carbonyl)-2-methyl-propyl]-carbamic acid methyl ester] yielded an EC50 [1] of less than 0.1 nM and a CC50 (in vitro) of 10 to 75 µM.

`COC(=O)N[C@H](C(=O)N1CCC[C@H]1c1nc2cc(-c3csc4c(-c5ccc(-c6cnc([C@@H]7CCCN7C(=O)[C@H](NC(=O)OC)c7ccccc7)[nH]6)cc5)csc34)ccc2[nH]1)C(C)C` [Compound A169, [(S)-1-((S)-2-{6-[6-(4-{(S)-2-[1-((R)-2-methoxycarbonylamino-2-phenyl-acetyl)-pyrrolidin-2-yl]-3H-imidazol-4-yl}-phenyl)-thieno[3,2-b]thiophen-3-yl]-1H-benzoimidazol-2-yl}-pyrrolidine-1-carbonyl)-2-methyl-propyl]-carbamic acid methyl ester] showed an EC50 ([2]; Hepatitis C virus, genotype 1b, NS5B mutation M423T (confers resistance to Thiophene)) of 2 pM and a Ratio ([2]; {}) of 1.22.
